Measurements published in patent US20140205566A1, “CYCLIC NUCLEUOSIDE DERIVATIVES AND USES THEREOF” (NOVARTIS AG, priority 2012, published 2014).

Experiments:
[1] = Nucleoside triphosphate concentrations in dog PBMC after oral administration; type: in vivo; details: oral administration of 3 mg/Kg
Experimental: Male beagle dogs were administered a single intravenous (0.5 mg/kg) or oral dose (3-15 mg/kg) of a representative compound of the present invention. Blood samples (3.5 mL) were collected at 0, 0.0833 (IV only), 0.25, 0.5, 1, 2, 4, 6, 8, 24, 48, 72 hours post-dose through the jugular vein. K2EDTA was used as the anticoagulant. Plasma was prepared from an aliquot of 0.5 mL of blood and assayed for the compound and metabolites by tandem mass spectrometric method (LC/MS-MS). PBMC was isolated from 3 mL of blood and assayed for nucleoside triphosphate (NTP) levels by LC/MS-MS.
Three mL of blood was collected from the dog into EDTA vacutainers and mixed on a rocker & immediately placed on ice. The blood was transferred to a 15 mL falcon tube. Three mL PBS (w/o Ca/Mg) and 3 mL 6% dextran (in PBS) were added and was left for 30 minutes on ice to allow the red blood cells to sediment. Blood supernatant (5-7 mL) was layered on top of 5 mL of Mammalian-Lympholyte in 15-mL conical blue-top tube, centrifuged for 20 minutes at 1500 g at 4° C.
After centrifugation, the well-defined lymphocyte (PBMC) layer at the interface was carefully removed to a new 15-mL centrifuge tube and was diluted to a total volume of 15 mL to reduce the density of the solution. The content was centrifuged at 800 g for 10 minutes at 4° C. to pellet the PBMC. The pellet was re-suspended in 1 mL of PBS and further diluted to 10 mL, followed by centrifugation at 800 g for 10 minutes at 4° C. to pellet the PBMC. The pellet was re-suspended in 1 mL PBS and followed by 5 mL ice cold de-ionized water, mixed for 30 seconds by inverting to lyse the remaining red blood cells. Five ml of ice cold 2×PBS was added to bring the mixture back to isotonicity. The mixture was centrifuged at 800 g for 10 minutes at 4° C. to pellet the cells and discard the supernatant. The resulting pellet was re-suspended in 1 mL PBS. An aliquot of 10 μL of the pellet suspension was diluted into 90 μL of PBS for cell count. An aliquot of each sample was transferred to a fresh Eppendorf tubes and centrifuged at 5000 rpm for 5 min at 4° C. The pellets were ready for bioanalysis.
Concentrations of nucleoside triphosphate in PBMC were determined by tandem mass spectrometric method (LC/MS/MS). Chromatography was conducted on ACQUITY UPLC HSS T3 Column, 100 Å, 1.8 μm, 2.1 mm×50 mm using a mobile phase gradient consisting of (A) 2 mM ammonium dihydrogen-phosphate and 5 mM Hexylamine in (B) Acetonitrile, 8% B to 22% B in 3.2 minutes at a flow rate of 0.3 mL/minute. The mass spectrometer was operated in the Multiple Reaction Monitoring (MRM) using negative ionization mode. An internal standard, Carbosynth was used in the construction of standard calibration curves in blank PBMC obtained commercially. The nucleoside triphosphate was monitored at m/z 538.1>158.9 and the internal standard was monitored at 536.1>158.9. The dynamic range was 50, 100, 300, 1000, 3000, 10000, 30000 fmole/3×10^6 PBMC.

[2] = CCK8 cytotoxicity assay in THP-1 cells; type: cell-based; details: human, CCK-8
Experimental: 4 day cytotoxicity assay using THP-1 cells: THP-1 cells grown in suspension were counted and diluted to 8×10^4 cells/ml in RPMI-1640 media supplemented with 10% fetal bovine serum (FBS) and 1% penicillin/streptomycin. 25 ul of the THP-1 containing media consisting of 2000 cells were dispensed in 384-well tissue culture plate and pre-incubated at room temperature for 30 minutes, followed by 37° C., 5% CO2 overnight in the humidified incubator. On the next day, serial-diluted compound plates were prepared and 125 nl of compounds at various concentrations were then dispensed into the tissue culture well (200× dilution). The plates were then transferred to 37° C., 5% CO2 humidified incubator for additional 96 hours. Cytotoxicity was measured by CCK-8 assay. Briefly, CCK-8 was thawed on bench top and diluted 2.5× with the growth media. 35 ul of the pre-diluted CCK-8 was then introduced into each well and the plates were then further incubated in 37° C., 5% CO2 humidified incubator for 3 hours. The absorbance was read by Envision at 450 nm. Dose response curves were calculated as in the previous section (n=2). The CC50 is estimated as the concentration of the compound which will inhibit 50% of the signal. A positive control (puromycin) was used to ensure the quality of the data.

[3] = Liver S9 stability determination; type: in vitro ADME; details: pooled liver S9 fraction; human liver S9 fraction, 1 μM compound, 37° C., up to 120 mins; read-out: liver S9 t1/2
From the text: The liver is the main organ of metabolism and contains a high concentration of drug metabolizing enzymes. Metabolic clearance, particularly hepatic, is one of the main determinants affecting systemic drug exposure following both oral and i.v. administration. To assess the ability of the compounds of the invention to reach a systemic circulation, the hepatic S9 fraction was chosen to test for stability of the compounds. Hepatic S9 fraction was obtained following centrifugation of homogenized liver tissue at 9,000 g. The hepatic S9 fraction is composed of both microsomal and cytosolic fractions and contains all the enzymes contained in microsomes plus additional phase I and phase II cytosolic enzymes.
Stock solutions of each tested compound (100 μM) were prepared in methanol by two subsequent 1:10 dilutions from 10 mM DMSO drug solutions, the final assay concentration was 1 μM. Frozen pooled liver S9 fraction was thawed from −20° C. and diluted in phosphate buffer (with and without NADPH) which was pre-warmed at 37° C. for 10 minutes. The reaction was initiated by addition of compound. Manual sample plates were incubated on a Thermo Max Q 2000 shaker placed in a temperature controlled Sartorius Certomat H hood set at 37° C. Sequential samples were removed at designated timepoints (0, 5, 15, 30, 60 and 120 mins) and quenched with 4 volumes of ice cold acetonitrile (containing internal standard, diazepam), centrifuged and supernatants reconstituted in water (acetonitrile:water, 50:50% v/v). Samples were then analyzed by LCMS/MS or LC-UV to assess parent depletion. In vitro half-life (t1/2) is calculated based on the rate of disappearance of compound from the reaction mixture at incubation timepoints up to 2 hours.

Row | Compound | NTP AUC0-24h [1] [fmol/3 million cells] | NTP Cmax [1] [fmol/3 million cells] | CC50 at 96 h [2] [µM] | half-life at 1 μM [3] [min]
1 | CCOC(=O)[C@H](C)N[P@@]1(=O)OC[C@H]2O[C@@H](n3cnc4c(OCC)nc(N)nc43)[C@](C)(F)[C@@H]2O1 [Example 1, (S)-ethyl 2-(((2R,4aR,6R,7R,7aR)-6-(2-amino-6-ethoxy-9H-purin-9-yl)-7-fluoro-7-methyl-2-oxidotetrahydro-4H-furo[3,2-d][1,3,2]dioxaphosphinin-2-yl)amino)propanoate] | 36900 ± 11358 | 2331 ± 1181 | > 50 | 76
2 | CCOc1nc(N)nc2c1ncn2[C@@H]1O[C@@H]2CO[P@@](=O)(N[C@@H](C)C(=O)OC(C)C)O[C@H]2[C@@]1(C)F [Example 2, (S)-isopropyl 2-(((2S,4aR,6R,7R,7aR)-6-(2-amino-6-ethoxy-9H-purin-9-yl)-7-fluoro-7-methyl-2-oxidotetrahydro-4H-furo[3,2-d][1,3,2]dioxaphosphinin-2-yl)amino)propanoate] | 7218 ± 5117 | 618 ± 308 | 34 | 36
3 | CCOc1nc(N)nc2c1ncn2[C@@H]1O[C@@H]2CO[P@](=O)(N[C@@H](C)C(=O)OC)O[C@H]2[C@@]1(C)F [Example 3, (S)-methyl 2-(((2R,4aR,6R,7R,7aR)-6-(2-amino-6-ethoxy-9H-purin-9-yl)-7-fluoro-7-methyl-2-oxidotetrahydro-4H-furo[3,2-d][1,3,2]dioxaphosphinin-2-yl)amino)propanoate] | 10457 ± 2983 | 662 ± 228 | > 50 | > 120
4 | CCOc1nc(N)nc2c1ncn2[C@@H]1O[C@@H]2CO[P@@](=O)(N[C@H](C)C(=O)OC(C)C)O[C@H]2[C@@]1(C)F [Example 6, (R)-isopropyl 2-(((2S,4aR,6R,7R,7aR)-6-(2-amino-6-ethoxy-9H-purin-9-yl)-7-fluoro-7-methyl-2-oxidotetrahydro-4H-furo[3,2-d][1,3,2]dioxaphosphinin-2-yl)amino)propanoate] | 11049 ± 2190 | 777 ± 45.2 | > 50 | > 120
